These results are taken from patent publication US20100028266A1, “Composition and methods for treating allergic response” (Alpha Synergy Development. Inc., priority 2008, published 2010).

The test system of experiment [1] is eyes of a patient with an ocular condition (baseline redness 4/4). The conditions noted are these: brimonidine at 0.01%, 0.02%, […] (left eye) compared with tetrahydrozoline 0.05%, oxymetazoline […], naphazoline […] (right eye). An excerpt: In an average clinical situation, baseline redness is at 1-1.5/4.
The subject of experiment [2] is patients with chronic red eyes. As to the kind of experiment: Example 5: chronic red eyes, one eye each treatment, patient satisfaction assessment. The experiment is classed as in vivo, human. Here is the method:
The treatment was through drops twice a day for three to five weeks. At the end, patient satisfaction assessment was conducted.

In experiment [3] the test system is eyes of a patient with an ocular condition of moderate hyperemia. The experiment can be described thus: FIGS. 5A-C: reversal of pre-induced rebound hyperemia. The experiment is classed as in vivo, human. The note with it: brimonidine at […] given after VISINE Original. An excerpt: FIG. 5A is a baseline visual appearance of two eyes of a patient with an ocular condition.

For the molecule `Brc1c(N=C2NCCN2)ccc2nccnc12.O=C(O)C(O)C(O)C(=O)O` [brimonidine, 5-bromo-6-(2-imidazolidinylideneamino)quinoxaline L-tartrate], in experiment [1], the “scleral whitening brightening effects” value is listed as “significant scleral whitening brightening effects”. Moreover, the “patients who preferred the treatment” value in experiment [2] (brimonidine at […] in one eye, Naphcon-A in the other, twice a day for three to five weeks) amounted to 42%. In experiment [2] (brimonidine at […], drops twice a day for three to five weeks), the patient-reported redness result is listed as “All patients reported reduced redness”. Moreover, the “effect on VISINE Original induced rebound hyperemia, right eye” value in experiment [3] is on record as “reversing the VISINE Original® induced rebound hyperemia”.
